{
  "source": "patent US20130030012A1",
  "about": "“COMPOUNDS” (Glaxo Group Limited, priority 2011, published 2013)",
  "key": {"[1]": {"system": "experimental autoimmune encephalomyelitis (EAE) rats", "test": "Rat experimental autoimmune encephalomyelitis (EAE) model, preventive treatment", "assay_type": "in vivo", "description": "A further study was carried out to study the impact of Lp-PLA2 inhibitors on modulating M1/M2 imbalance. In this study, rats were induced to develop experimental autoimmune encephalomyelitis (EAE) by immunization with myelin basic protein (MBP) antigen and treated with a known Lp-PLA2 inhibitor: 5-((9-Methoxy-4-oxo-6,7-dihydro-4H-pyrimido[6,1-a]isoquinolin-2-yl)oxy)-2-(3-(trifluoromethyl)phenoxy)benzonitrile (See PCT application no. PCT/CN2011/001597). In this preventive treatment model, the compound was administered at day 0 (day of immunization) and continued to administer until day 22. The study lasted for 25 days. Rats were subsequently monitored for symptoms of EAE. Rats were immunized with MBP to develop EAE and symptoms were monitored daily. Plasma Lp-PLA2 activity, OxLDL, and LysoPC concentration were determined at different time points through the course of EAE."}, "[2]": {"system": "proinflammatory (M1) and anti-inflammatory (M2) markers in splenic and CNS infiltrating macrophages", "test": "Ex vivo analysis of M1 and M2 markers in macrophages of EAE rats by realtime PCR", "design": "species or system rat", "conditions": "spleen harvested day 13 post MBP-immunization", "description": "Ex vivo analysis of proinflammatory (M1) and anti-inflammatory (M2) markers in control and compound treated EAE rats. Splenic macrophages were harvested at day 13 post MBP-immunization and assayed for expression of a variety of markers by realtime PCR. CNS infiltrating cells were harvested and macrophages were analyzed for expression of M1 and M2 markers by realtime PCR."}, "[3]": {"biological_target": "T1, Lp-PLA2 in human plasma (Homo sapiens, UniProt Q13093)", "T1 construct": "from tissue; host or cells: pooled human plasma", "T1 sequence (Q13093 22-441)": "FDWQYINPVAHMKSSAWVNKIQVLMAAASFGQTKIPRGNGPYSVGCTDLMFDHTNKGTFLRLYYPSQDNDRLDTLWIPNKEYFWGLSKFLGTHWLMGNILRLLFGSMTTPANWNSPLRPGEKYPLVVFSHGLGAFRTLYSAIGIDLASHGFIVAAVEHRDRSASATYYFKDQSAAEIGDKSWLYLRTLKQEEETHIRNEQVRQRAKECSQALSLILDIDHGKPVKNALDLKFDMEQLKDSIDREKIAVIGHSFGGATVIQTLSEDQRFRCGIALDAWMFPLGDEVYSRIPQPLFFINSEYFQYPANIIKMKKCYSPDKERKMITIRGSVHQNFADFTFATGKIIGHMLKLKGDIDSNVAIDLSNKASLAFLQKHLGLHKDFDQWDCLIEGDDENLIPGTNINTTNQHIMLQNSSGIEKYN", "test": "Lp-PLA2 human plasma assay (Thio-PAF assay)", "assay_type": "biochemical", "conditions": "pooled human plasma; read-out: pIC50 values in the thio-PAF assay (converted)", "summary_of_the_method": "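Pooled human plasma preincubated 30 min with compounds, then given substrate mix of 2.5 mM 2-thio-PAF, […] and 3.2 mM NEM (concentrations in substrate solution) in pH 7.4 HEPES/NaCl/CHAPS buffer. Quenched with TFA after 2 min; CPM-thiol fluorescence read at ex 380/em 485 to give pIC50.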"}, "[4]": {"biological_target": "T2, recombinant human Lp-PLA2 (Homo sapiens, UniProt Q13093)", "T2 sequence (Q13093 22-441)": "T1 sequence (Q13093 22-441)", "test": "Recombinant human Lp-PLA2 assay (rhLp-PLA2, PED6 assay)", "assay_type": "biochemical", "conditions": "upper limit for pIC50 in this assay is 9.3; read-out: pIC50 values in the PED6 assay (converted)", "summary_of_the_method": "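Enzyme at 4 nM (or 110 pM) in 50 mM HEPES pH 7.4, 150 mM NaCl, 1 mM CHAPS, preincubated with compound 30 min. PED6 substrate ([…] 5 μM, as printed) then added and reaction run 20 min at room temperature, protected from light. Fluorescence read at ex 480/em 540; pIC50 from curve fitting.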"}},
  "data": [
    {"molecule": "COc1ccc2c(c1)CCn1c-2cc(Oc2ccc(Oc3cccc(C(F)(F)F)c3)c(C#N)c2)nc1=O", "note": "[5-((9-Methoxy-4-oxo-6,7-dihydro-4H-pyrimido[6,1-a]isoquinolin-2-yl)oxy)-2-(3-(trifluoromethyl)phenoxy)benzonitrile]", "values": [
      {"measurement": "LysoPC levels", "setting": "[1]; rat EAE plasma", "value": "decreased"},
      {"measurement": "plasma Lp-PLA2 activity", "setting": "[1]; rat EAE plasma", "value": "decreased Lp-PLA2 activity"},
      {"measurement": "clinical disease", "setting": "[1]; rat EAE, MBP immunization, compound administered day 0 to day 22", "value": "reduction in clinical disease"},
      {"measurement": "M1 markers expression", "setting": "[2]", "value": "decrease in M1 markers"},
      {"measurement": "M2 markers expression", "setting": "[2]", "value": "increase in M2 markers"}
    ]},
    {"molecule": "O=c1nc(OCc2ccc(Oc3ccc(Cl)c(C(F)(F)F)c3)c(F)c2)cc2n1CCCN2", "note": "[Example 97, 8-((4-(4-chloro-3-(trifluoromethyl)phenoxy)-3-fluorobenzyl)oxy)-3,4-dihydro-1H-pyrimido[1,6-a]pyrimidin-6(2H)-one]", "values": [
      {"measurement": "IC50", "setting": "[3]", "value": "≤ 100", "unit": "nM"},
      {"measurement": "IC50", "setting": "[4]", "value": "≤ 1", "unit": "nM"}
    ]},
    {"molecule": "CN1CCCn2c1cc(OCc1ccc(Oc3cc(F)cc(C#N)c3)c(F)c1)nc2=O", "note": "[Example 98, 3-fluoro-5-(2-fluoro-4-(((1-methyl-6-oxo-2,3,4,6-tetrahydro-1H-pyrimido[1,6-a]pyrimidin-8-yl)oxy)methyl)phenoxy)benzonitrile]", "values": [
      {"measurement": "IC50", "setting": "[3]", "value": "≤ 100", "unit": "nM"},
      {"measurement": "IC50", "setting": "[4]", "value": "≤ 1", "unit": "nM"}
    ]},
    {"molecule": "O=c1nc(OCc2ccc(F)c(F)c2)cc2n1CCCN2", "note": "[Example 99, 8-((3,4-difluorobenzyl)oxy)-3,4-dihydro-1H-pyrimido[1,6-a]pyrimidin-6(2H)-one]", "values": [
      {"measurement": "IC50", "setting": "[3]", "value": "≤ 100", "unit": "nM"},
      {"measurement": "IC50", "setting": "[4]", "value": "≤ 10", "unit": "nM"}
    ]},
    {"molecule": "O=c1nc(OCc2ccc(Oc3ccc(F)c(C(F)(F)F)c3)cc2)cc2n1CCCN2", "note": "[Example 100, 8-((4-(4-fluoro-3-(trifluoromethyl)phenoxy)benzyl)oxy)-3,4-dihydro-1H-pyrimido[1,6-a]pyrimidin-6(2H)-one]", "values": [
      {"measurement": "IC50", "setting": "[3]", "value": "≤ 100", "unit": "nM"},
      {"measurement": "IC50", "setting": "[4]", "value": "≤ 1", "unit": "nM"}
    ]},
    {"molecule": "O=c1nc(OCc2ccc(Oc3cccc(C(F)(F)F)c3)c(F)c2)cc2n1CCCN2", "note": "[Example 101, 8-((3-fluoro-4-(3-(trifluoromethyl)phenoxy)benzyl)oxy)-3,4-dihydro-1H-pyrimido[1,6-a]pyrimidin-6(2H)-one]", "values": [
      {"measurement": "IC50", "setting": "[3]", "value": "≤ 100", "unit": "nM"},
      {"measurement": "IC50", "setting": "[4]", "value": "≤ 1", "unit": "nM"}
    ]},
    {"molecule": "CN1CCCn2c1cc(OCCc1ccc(Oc3ccc(Cl)c(F)c3)c(F)c1)nc2=O", "note": "[Example 102, 8-(4-(4-chloro-3-fluorophenoxy)-3-fluorophenethoxy)-1-methyl-3,4-dihydro-1H-pyrimido[1,6-a]pyrimidin-6(2H)-one]", "values": [
      {"measurement": "IC50", "setting": "[3]", "value": "≤ 1000", "unit": "nM"},
      {"measurement": "IC50", "setting": "[4]", "value": "≤ 1", "unit": "nM"}
    ]},
    {"molecule": "CN1CCCn2c1cc(OCCc1ccc(Oc3ccc(Cl)c(F)c3)cc1)nc2=O", "note": "[Example 103, 8-(4-(4-chloro-3-fluorophenoxy)phenethoxy)-1-methyl-3,4-dihydro-1H-pyrimido[1,6-a]pyrimidin-6(2H)-one]", "values": [
      {"measurement": "IC50", "setting": "[3]", "value": "≤ 1000", "unit": "nM"},
      {"measurement": "IC50", "setting": "[4]", "value": "≤ 10", "unit": "nM"}
    ]},
    {"molecule": "N#Cc1ccc(Oc2ccc(COc3cc4n(c(=O)n3)CCCN4)cc2C#N)cc1F", "note": "[Example 104, 4-(2-cyano-4-(((6-oxo-2,3,4,6-tetrahydro-1H-pyrimido[1,6-a]pyrimidin-8-yl)oxy)methyl)phenoxy)-2-fluorobenzonitrile]", "values": [
      {"measurement": "IC50", "setting": "[3]", "value": "≤ 100", "unit": "nM"},
      {"measurement": "IC50", "setting": "[4]", "value": "≤ 1", "unit": "nM"}
    ]},
    {"molecule": "CN1CCCn2c1cc(OCCc1ccc(Oc3cccc(C(F)(F)F)c3)c(F)c1)nc2=O", "note": "[Example 105, 8-(3-fluoro-4-(3-(trifluoromethyl)phenoxy)phenethoxy)-1-methyl-3,4-dihydro-1H-pyrimido[1,6-a]pyrimidin-6(2H)-one]", "values": [
      {"measurement": "IC50", "setting": "[3]", "value": "≤ 100", "unit": "nM"},
      {"measurement": "IC50", "setting": "[4]", "value": "≤ 1", "unit": "nM"}
    ]},
    {"molecule": "N#Cc1ccc(Oc2ccc(COc3cc4n(c(=O)n3)CCCN4)cc2C#N)cc1Cl", "note": "[Example 106, 2-chloro-4-(2-cyano-4-(((6-oxo-2,3,4,6-tetrahydro-1H-pyrimido[1,6-a]pyrimidin-8-yl)oxy)methyl)phenoxy)benzonitrile]", "values": [
      {"measurement": "IC50", "setting": "[3]", "value": "≤ 100", "unit": "nM"},
      {"measurement": "IC50", "setting": "[4]", "value": "≤ 10", "unit": "nM"}
    ]},
    {"molecule": "N#Cc1cc(COc2cc3n(c(=O)n2)CCCN3)ccc1Oc1ccc(Cl)c(C(F)(F)F)c1", "note": "[Example 107, 2-(4-chloro-3-(trifluoromethyl)phenoxy)-5-(((6-oxo-2,3,4,6-tetrahydro-1H-pyrimido[1,6-a]pyrimidin-8-yl)oxy)methyl)benzonitrile]", "values": [
      {"measurement": "IC50", "setting": "[3]", "value": "≤ 100", "unit": "nM"},
      {"measurement": "IC50", "setting": "[4]", "value": "≤ 1", "unit": "nM"}
    ]},
    {"molecule": "O=c1nc(OCc2cc(F)c(F)c(F)c2)cc2n1CCCN2", "note": "[Example 113, 8-(3,4,5-trifluorobenzyloxy)-3,4-dihydro-1H-pyrimido[1,6-a]pyrimidin-6(2H)-one]", "values": [
      {"measurement": "IC50", "setting": "[3]", "value": "≤ 100", "unit": "nM"},
      {"measurement": "IC50", "setting": "[4]", "value": "≤ 10", "unit": "nM"}
    ]},
    {"molecule": "O=c1nc(OCc2cc(F)c(Oc3ccc(F)cc3)c(F)c2)cc2n1CCCN2", "note": "[Example 114, 8-((3,5-difluoro-4-(4-fluorophenoxy)benzyl)oxy)-3,4-dihydro-1H-pyrimido[1,6-a]pyrimidin-6(2H)-one]", "values": [
      {"measurement": "IC50", "setting": "[3]", "value": "≤ 100", "unit": "nM"},
      {"measurement": "IC50", "setting": "[4]", "value": "≤ 1", "unit": "nM"}
    ]},
    {"molecule": "O=c1nc(OCc2cc(F)c(Oc3cccc(F)c3)c(F)c2)cc2n1CCCN2", "note": "[Example 115, 8-((3,5-difluoro-4-(3-fluorophenoxy)benzyl)oxy)-3,4-dihydro-1H-pyrimido[1,6-a]pyrimidin-6(2H)-one]", "values": [
      {"measurement": "IC50", "setting": "[3]", "value": "≤ 100", "unit": "nM"},
      {"measurement": "IC50", "setting": "[4]", "value": "≤ 1", "unit": "nM"}
    ]},
    {"molecule": "O=c1nc(OCc2ccc(Oc3cccc(F)c3)c(F)c2)cc2n1CCCN2", "note": "[Example 116, 8-((3-fluoro-4-(3-fluorophenoxy)benzyl)oxy)-3,4-dihydro-1H-pyrimido[1,6-a]pyrimidin-6(2H)-one]", "values": [
      {"measurement": "IC50", "setting": "[3]", "value": "≤ 100", "unit": "nM"},
      {"measurement": "IC50", "setting": "[4]", "value": "≤ 1", "unit": "nM"}
    ]},
    {"molecule": "O=c1nc(OCc2ccc(Oc3ccc(F)c(F)c3)c(F)c2)cc2n1CCCN2", "note": "[Example 117, 8-((4-(3,4-difluorophenoxy)-3-fluorobenzyl)oxy)-3,4-dihydro-1H-pyrimido[1,6-a]pyrimidin-6(2H)-one]", "values": [
      {"measurement": "IC50", "setting": "[3]", "value": "≤ 100", "unit": "nM"},
      {"measurement": "IC50", "setting": "[4]", "value": "≤ 1", "unit": "nM"}
    ]},
    {"molecule": "O=c1nc(OCc2ccc(Oc3ccc(F)cc3)c(F)c2)cc2n1CCCN2", "note": "[Example 118, 8-((3-fluoro-4-(4-fluorophenoxy)benzyl)oxy)-3,4-dihydro-1H-pyrimido[1,6-a]pyrimidin-6(2H)-one]", "values": [
      {"measurement": "IC50", "setting": "[3]", "value": "≤ 100", "unit": "nM"},
      {"measurement": "IC50", "setting": "[4]", "value": "≤ 1", "unit": "nM"}
    ]},
    {"molecule": "O=c1nc(OCc2ccc(Oc3ccc(F)c(F)c3)cc2)cc2n1CCCN2", "note": "[Example 119, 8-((4-(3,4-difluorophenoxy)benzyl)oxy)-3,4-dihydro-1H-pyrimido[1,6-a]pyrimidin-6(2H)-one]", "values": [
      {"measurement": "IC50", "setting": "[3]", "value": "≤ 100", "unit": "nM"},
      {"measurement": "IC50", "setting": "[4]", "value": "≤ 1", "unit": "nM"}
    ]}
  ]
}
